For one experiment, the target named is T1, CETP (Homo sapiens, UniProt P11597).
T1 construct: enriched CETP fraction, obtained from human plasma by means of hydrophobic chromatography; from tissue; host or cells: human plasma
T1 sequence (P11597 18-493): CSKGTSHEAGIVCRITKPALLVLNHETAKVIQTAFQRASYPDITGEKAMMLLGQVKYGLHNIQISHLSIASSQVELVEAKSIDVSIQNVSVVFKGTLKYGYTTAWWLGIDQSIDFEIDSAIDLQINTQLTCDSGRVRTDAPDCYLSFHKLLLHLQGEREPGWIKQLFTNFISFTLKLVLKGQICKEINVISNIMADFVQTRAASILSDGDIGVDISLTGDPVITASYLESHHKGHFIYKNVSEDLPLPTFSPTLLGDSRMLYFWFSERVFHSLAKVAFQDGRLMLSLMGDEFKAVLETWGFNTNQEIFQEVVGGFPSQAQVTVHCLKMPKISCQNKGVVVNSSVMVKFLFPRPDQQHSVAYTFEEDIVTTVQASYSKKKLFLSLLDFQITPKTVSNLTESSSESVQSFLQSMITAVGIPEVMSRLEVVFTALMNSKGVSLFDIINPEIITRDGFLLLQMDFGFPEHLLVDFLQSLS
As to the kind of experiment: CETP fluorescence test. The class given is biochemical. The settings on record: CETP from human plasma, transfer of fluorescent cholesterol ester between liposomes, 37° C., 4 hours; read-out: IC50 [nM] Fluor. test. The protocol:
CETP is obtained in partially purified form from human plasma by differential centrifugation and column chromatography and used for the test. To this end, human plasma is adjusted to a density of 1.21 g per ml using NaBr and centrifuged at 4° C. at 50 000 rpm for 18 h. The bottom fraction (d>1.21 g/ml) is applied to a Sephadex® Phenyl-Sepharose 4B (Pharmacia) column, washed with 0.15 M NaCl/0.001 M tris HCl pH 7.4 and then eluted with distilled water. The CETP-active fractions are pooled, dialysed against 50 mM sodium acetate pH 4.5 and applied to a CM-Sepharose® column (Pharmacia). The mixture is then eluted using a linear gradient (0-1 M NaCl). The pooled CETP fractions are dialysed against 10 mM Tris HCl pH 7.4 and then further purified by chromatography on a Mono Q® column (Pharmacia).
Measurement of the CETP-catalysed transfer of a fluorescent cholesterol ester between liposomes—modified according to the procedure of Bisgaier et al., J. Lipid Res. 34, 1625 (1993):
For the production of the donor liposomes, 1 mg of cholesteryl 4,4-difluoro-5,7-dimethyl-4-bora-3a,4a-diaza-s-indacene-3-dodecanoate (cholesteryl BODIPY® FL C12, Molecular Probes) is dissolved in 600 μl of dioxane with 5.35 mg of triolein and 6.67 mg of phosphatidylcholine with gentle warming in an ultrasonic bath and this solution is added very slowly with ultrasonication to 63 ml of 50 mM tris/HCl, 150 mM NaCl, 2 mM EDTA buffer pH 7.3 at RT.
The suspension is then ultrasonicated under an N2 atmosphere for 30 minutes in the Braukson ultrasonic bath at about 50 watts, the temperature being kept at about 20° C.
The acceptor liposomes are obtained analogously from 86 mg of cholesteryl oleate, 20 mg of triolein and 100 mg of phosphatidylcholine dissolved in 1.2 ml of dioxane and 114 ml of above buffer by ultrasonication at 50 watts (20° C.) for 30 minutes.
For testing, a test mix consisting of 1 part of above buffer, 1 part of donor liposomes and 2 parts of acceptor liposomes is used.
80 μl of test mix are treated with 1-3 μg of enriched CETP fraction, obtained from human plasma by means of hydrophobic chromatography, and 2 μl of the substance to be investigated in DMSO and incubated at 37° C. for 4 hours.
The change in the fluorescence at 485/535 nm is a measure of the CE transfer; the inhibition of the transfer in comparison to the control batch without substance is determined.

Experiment [1] has as its target T2, CETP activity in the serum (Homo sapiens, UniProt P11597).
T2 construct: from tissue; host or cells: serum of transgenic hCETP mice
T2 sequence (P11597 18-493): T1 sequence (P11597 18-493)
The experiment in a line: Measurement of the ex vivo activities on transgenic hCETP mice. It counts as in vivo. The settings on record: mouse, serum cholesteryl ester transport; for inhibition at 100 mg/kg: 100 mg/kg oral; for inhibition at 30 mg/kg: 30 mg/kg oral. How it is done: To test for CETP-inhibitory activity, the substances are administered orally using a stomach tube to transgenic hCETP mice bred in-house (Dinchuk et al. BBA (1995) 1295-301). To this end, male animals are randomly assigned to groups having an equal number of animals, as a rule n=3, one day before the start of the experiment. Before administration of the substance, blood is taken from each mouse by puncture of the retro-orbital venous plexus for the determination of its basal CETP activity in the serum (T1). The test substance is then administered to the animals using the stomach tube. At specific times after administration of the test substance, blood is taken from the animals by puncture a second time (T2), as a rule 0.5, or 1 and 2 h after substance administration, but if appropriate this can also be carried out at another time.
In order to be able to assess the inhibitory activity of a substance, for each time, i.e. 0.5 or 1 or 2 h, a corresponding control group is employed whose animals only receive the formulating agent without substance. In the control animals, the second blood sampling per animal is carried out as in the substance-treated animals in order to be able to determine the change in the CETP activity without inhibitor over the corresponding experimental time interval (0.5, 1 or 2 h).
After termination of the clotting, the blood samples are centrifuged and the serum is removed by pipette.
For the determination of the CETP activity, the cholesteryl ester transport over 4 h is determined. To this end, as a rule 2 μl of serum are employed in the test batch and the test is carried out as described under “CETP fluorescence test”.
The differences in the cholesteryl ester transport [pM CE*/h (T2)−pM CE*/h (T1)] are calculated for each animal and averaged in the groups. A substance which at one of the times reduces the cholesteryl ester transport by >30% is regarded as active.

A further experiment concerns HDL. As to the kind of experiment: Measurement of the in vivo activity in transgenic hCETP mice. To be noted: stomach tube. How it is done: In experiments for the determination of the oral action on lipoproteins and triglycerides, test substance is administered to transgenic mice [Dinchuck et al., BBA, 1295-301 (1995)] using a stomach tube. Before the start of the experiment, blood is taken from the mice retro-orbitally in order to determine cholesterol and triglycerides in the serum. The serum is obtained as described above for hamsters by incubation at 4° C. overnight and subsequent centrifugation at 6000×g. […] The change in the parameters measured are expressed as the percentage change compared with the starting value.

[2] abbreviates: 0.5 h after administration, read-out: % inhibition at 100 mg/kg 0.5 h.
Setting [3] is: 1 h after administration, read-out: % inhibition at 100 mg/kg 1 h.
The mark [4] stands for this setting: 2 h after administration, read-out: % inhibition at 100 mg/kg 2 h.
[5] abbreviates: 0.5 h after administration, read-out: % inhibition at 30 mg/kg 0.5 h.
[6] abbreviates: 1 h after administration, read-out: % inhibition at 30 mg/kg 1 h.
Where [7] appears, read: 2 h after administration, read-out: % inhibition at 30 mg/kg 2 h.
Setting [8] is: 3 h after administration, read-out: % inhibition at 30 mg/kg 3 h.
Where [9] appears, read: 6 h after administration, read-out: % inhibition at 30 mg/kg 6 h.

Where two headings read alike, the source gives them in different places.

By IC50 is commonly meant the concentration at which inhibition is half-maximal.

For the compound `COc1c([C@@H](O)CC(C)C)ccc2c1C(=O)OCc1cc(C)cc(OC(=O)CC(C)(C)C)c1O2` [Example A-23], the half-maximal inhibitory concentration (IC50) on CETP is 250 nM. The inhibition at 100 mg/kg in experiment [1] (setting [2]) was determined as 59%; in experiment [1] (setting [3]) it was 52%; in experiment [1] (setting [4]), 31%.

`COc1c([C@@H](O)CC(C)C)ccc2c1C(=O)OCc1c(Cl)c(C)c(Br)c(OC(=O)C3(C)CC4CCC3C4)c1O2` (some centres unmarked) [Example B-45]: the IC50 on CETP was determined as 70 nM. Further, the inhibition at 30 mg/kg in experiment [1] (setting [5]) came to 70%; in experiment [1] (setting [6]), 71%; in experiment [1] (setting [7]) it was 63%.

Turning to `COc1c([C@@H](O)CC(C)C)ccc2c1C(=O)OCc1c(Br)c(C)c(Br)c(OC(=O)C3(C)CC4CCC3C4)c1O2` (some centres unmarked) [Example B-69], the half-inhibitory concentration (IC50) at CETP was determined as 100 nM. Besides, the inhibition at 30 mg/kg amounted to 52% in experiment [1] (setting [5]), 55% in experiment [1] (setting [6]) and 27% in experiment [1] (setting [7]).

In the case of `COc1c([C@@H](O)CC(C)C)ccc2c1C(=O)OCc1c(C)c(C)c(C)c(OC(=O)C3(C)CC4CCC3C4)c1O2` (some centres unmarked) [Example B-70], on CETP, the IC50 is 150 nM. For the same compound, the inhibition at 30 mg/kg in experiment [1] (setting [5]) is 48%; in experiment [1] (setting [6]), 30%; in experiment [1] (setting [7]), 44%.

As to `COc1c([C@@H](O)CC(C)C)ccc2c1C(=O)OCc1c(Cl)c(C)c(Cl)c(OC(=O)C3(C)CC4CCC3C4)c1O2` (some centres unmarked) [Example B-81], the IC50 on CETP amounted to 60 nM. Besides, the inhibition at 30 mg/kg in experiment [1] (setting [5]) stood at 54%; in experiment [1] (setting [6]), 59%; in experiment [1] (setting [7]) it was 55%.

As for `COc1c([C@@H](O)CC(C)C)ccc2c1C(=O)OCc1c(Cl)c(C)c(Cl)c(OC(=O)C3(C)CCCCC3)c1O2` [Example B-84], the half-maximal inhibitory concentration (IC50) at CETP was found to be 100 nM. Besides, the inhibition at 30 mg/kg in experiment [1] (setting [5]) is 31%; in experiment [1] (setting [6]), 28%; in experiment [1] (setting [7]), 35%.

Turning to `COc1c([C@@H](O)CC(C)C)ccc2c1C(=O)OCc1cc(C)cc(OC(=O)N3C4CCC3CC4)c1O2` [Example B-147], at CETP, the IC50 amounted to 200 nM. Moreover, the inhibition at 100 mg/kg in experiment [1] (setting [2]) came out at 76%; in experiment [1] (setting [3]), 54%; in experiment [1] (setting [4]), 33%.

With `COc1c([C@@H](O)CC(C)C)ccc2c1C(=O)OCc1c(Cl)c(C)c(Br)c(OC(=O)[C@]3(C)CC4C=CC3C4)c1O2` (some centres unmarked) [Example C-31], the values for the inhibition at 30 mg/kg in experiment [1] (setting [5]), in experiment [1] (setting [6]) and in experiment [1] (setting [7]) were 83%, 76% and 64%, respectively.

Consider `COc1c([C@@H](O)CC(C)C)ccc2c1C(=O)OCc1c(Cl)c(C)c(C3CC3)c(OC(=O)C3(C)C4CCC3CC4)c1O2` (some centres unmarked) [Example C-56], for which the IC50 at CETP worked out at 57 nM. The results for the inhibition at 30 mg/kg in experiment [1] (setting [6]), in experiment [1] (setting [8]) and in experiment [1] (setting [9]) were 66%, 53% and 14%, respectively.

`COc1c([C@@H](O)CC(C)C)ccc2c1C(=O)OCc1cc(C)c(C3CC3)c(OC(=O)C3(C)C4CCC3CC4)c1O2` (some centres unmarked) [Example C-59]: the inhibition at 30 mg/kg is 52% in experiment [1] (setting [6]), 32% in experiment [1] (setting [8]) and 26% in experiment [1] (setting [9]).

With `COCc1c(C)c(Cl)c2c(c1OC(=O)C1(C)C3CCC1CC3)Oc1ccc(C(O)CC(C)(C)C)c(OC)c1C(=O)OC2` (centres unmarked) [Example C-71], the IC50 at CETP amounted to 40 nM. In addition, the inhibition at 30 mg/kg in experiment [1] (setting [6]) was 60%; in experiment [1] (setting [8]), 29%; in experiment [1] (setting [9]), 7%.

On to `COc1c([C@@H](O)CC(C)(C)C)ccc2c1C(=O)OCc1c(Cl)c(C)c(C)c(OC(=O)C3(C)C4CCC3CC4)c1O2` (some centres unmarked) [Example C-72], for which the IC50 on CETP is 30 nM. The “% increase of HDL after 4 d (dose: 4 × 30 mg/kg)” value in the experiment with HDL is given as 68%.

As to `CCc1c(C)c(Cl)c2c(c1OC(=O)C1(C)C3CCC1CC3)Oc1ccc([C@@H](O)CC(C)(C)C)c(OC)c1C(=O)OC2` (some centres unmarked) [Example C-73], on CETP, the IC50 came to 15 nM. In addition, the inhibition at 30 mg/kg in experiment [1] (setting [6]) was 91%; in experiment [1] (setting [8]), 81%; in experiment [1] (setting [9]) it was 56%. Also, the “% increase of HDL after 4 d (dose: 4 × 30 mg/kg)” value in the experiment with HDL is recorded as 56%.

For the compound `CCc1c(C)c(Cl)c2c(c1OC(=O)C1(C)C3CCC1CC3)Oc1ccc([C@@H](O)CC(C)C)c(OC)c1C(=O)OC2` (some centres unmarked) [Example C-118], the IC50 at CETP came to 58 nM. The inhibition at 30 mg/kg in experiment [1] (setting [6]) turned out to be 75%; in experiment [1] (setting [8]), 50%; in experiment [1] (setting [9]) it was 20%.
